Assay results from article PMC11834572, “MoxR effects as an ATPase on anti-stress and pathogenicity of Riemerella anatipestifer” (Veterinary Research, 2025).

Biological target: T1, His6-MoxR (Riemerella anatipestifer, UniProt E4TDR4)
T1 construct: gene RA0C_2065
Conditions: 37 °C, 1 h; ATP or His6-MoxR concentration varied

T1 sequence (E4TDR4 entry or part of it): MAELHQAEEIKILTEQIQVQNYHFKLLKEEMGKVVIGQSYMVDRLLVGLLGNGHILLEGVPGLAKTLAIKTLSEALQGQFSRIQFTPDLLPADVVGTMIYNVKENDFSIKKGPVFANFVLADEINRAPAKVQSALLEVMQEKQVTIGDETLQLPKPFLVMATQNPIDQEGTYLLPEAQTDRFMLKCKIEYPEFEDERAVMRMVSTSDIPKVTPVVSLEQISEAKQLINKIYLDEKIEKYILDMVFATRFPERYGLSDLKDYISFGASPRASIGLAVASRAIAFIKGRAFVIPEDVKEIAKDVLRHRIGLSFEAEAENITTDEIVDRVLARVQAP

For Nc1ncnc2c1ncn2[C@@H]1O[C@H](COP(=O)(O)OP(=O)(O)OP(=O)(O)O)[C@@H](O)[C@H]1O [ATP], the “phosphate release, molybdenum blue, absorbance at 660 nm” value was “concentration of phosphate groups in each reaction system increased with higher amounts of His6-MoxR and ATP”.
